US10487078B2, “Compositions and methods of targeting mutant K-RAS” (NantBio, Inc., priority 2015, dated 2019)
Where two headings read alike, the source gives them in different places.

Key:
K-ras G12D = K-ras G12D (Homo sapiens, UniProt P01116, G12D); assay: G-LISA Ras activation assay, 293H cells transfected with G12D mutant; format: cell-based; conditions: 1 hour treatment
Description: (§1) 293H cells were seeded in 6-wells at 0.6×10^6 cells per well and transfected next day with 5 μg of Ras wild-type, or G12C, G12D or G12V mutant DNA plasmid vector using transfection reagent Lipofectamine 3000. Next day cells were treated with 3.125-50 μM of Ras compounds for 1 hour. Wild-type transfected cells were subsequently treated with 100 ng/ml EGF for 2 minutes. Cells were washed once in ice-cold PBS, lysed in complete lysis buffer on ice, and processed by G-LISA according to Cytoskeleton protocol.
(§2) In-cell selectivity of the compounds presented herein against a specific K-ras mutant form can also be tested as shown in the following exemplary experiment. 293H cells were seeded in 6-wells and transfected next day with 5 μg of Ras wild-type, or G12C, G12D or G12V mutant DNA plasmid vector. Next day cells were treated with 3.125-50 μM of Ras compounds for 1 hour. Wild-type transfected cells were subsequently treated with 100 ng/ml EGF for 2 minutes. Cells were washed once in ice-cold PBS, lysed in complete lysis buffer on ice, and processed by G-LISA according to Cytoskeleton protocol. FIG. 1 depicts exemplary results.
as §1, with “In still further experiments, the inventors tested selected compounds in a G-LISA assay to compare IC50 values for wild-type and various mutant K-Ras (G12D, G12V) using the following general protocol: 293H” for “293H”

K-ras G12V (GTP) = K-ras G12V (GTP) (Homo sapiens, UniProt P01116, G12V); assay: SPR assay (surface plasmon resonance); format: binding; conditions: 25° C., 8% DMSO
Description: Selected compounds were also tested for selective binding to wild type and mutant forms of K-ras in the active and non-active state using surface plasmon resonance, and exemplary results are shown in Table 4.
The running buffer in all surface plasmon resonance experiments was 10 mM HEPES pH 7.4, 150 mM NaCl, 0.1% (v/v) Tween-20, 1 mM MgCl2, 8% DMSO. Experiments were carried out on the SensiQ Pioneer optical biosensor. The flow rate was set at 50 μL/min and the temperature was 25° C. kRAS protein was immobilized to the Nickel-NTA charged surface of the SensiQ HisCap chip (sensiqtech.com) giving a yield of 4000 RU. Small molecules were prepared in 100% DMSO and further diluted to 8% DMSO in running buffer. The small molecules were injected using the Taylor diffusion gradient injection mode (OneStep®, see e.g., Evaluation of Taylor dispersion injections: Determining kinetic/affinity interaction constants and diffusion coefficients in label-free biosensing, John G. Quinn, Analytical Biochemistry (2011)). Buffer blanks were injected for double referencing purposes. Data processing and model fitting were performed using Qdat.

K-ras G12V = K-ras G12V (Homo sapiens, UniProt P01116, G12V); assay: G-LISA Ras activation assay, 293H cells transfected with G12V mutant; format: cell-based; conditions: 1 hour treatment
Description: as §1, §2
as §1, with “In still further experiments, the inventors tested selected compounds in a G-LISA assay to compare IC50 values for wild-type and various mutant K-Ras (G12D, G12V) using the following general protocol: 293H” for “293H”

K-Ras wild-type = K-Ras wild-type (Homo sapiens, UniProt P01116); assay: G-LISA Ras activation assay, 293H cells transfected with Ras wild-type, EGF-stimulated; format: cell-based; conditions: 1 hour treatment, 100 ng/ml EGF
Description: as §1, §2
as §1, with “In still further experiments, the inventors tested selected compounds in a G-LISA assay to compare IC50 values for wild-type and various mutant K-Ras (G12D, G12V) using the following general protocol: 293H” for “293H”

[1] = Table 1, G-LISA, 293H transfected, read-out: IC50 (μM) G12D
[2] = Table 5, IC50, 293H transfected, read-out: G-LISA (G12D)
[3] = Table 1, G-LISA, 293H transfected, read-out: IC50 (μM) G12V
[4] = Table 5, IC50, 293H transfected, read-out: G-LISA (G12V)

Cc1nc(C)c(C(=O)Nc2nc(-c3ccc4c(c3)CNC(=O)N4)cs2)s1 [Compound 4748]
IC50 (K-ras G12D; [1]): 21 µM | IC50 (K-ras G12D; [2]): 21 µM

Cc1nc(C(=O)Nc2nc(-c3ccc4c(c3)CCC(=O)N4)cs2)sc1C [Compound 4828]
IC50 (K-ras G12D; [1]): > 25 µM | IC50 (K-ras G12D; [2]): > 25 µM

CCc1ncsc1C(=O)Nc1nc(-c2ccc3c(c2)CCC(=O)N3)cs1 [Compound 4747]
IC50 (K-ras G12D; [1]): > 25 µM | IC50 (K-ras G12D; [2]): > 25 µM | Kd (K-ras G12V (GTP)): 10.1 µM | SPR Assay G12V (GTP) Rmax (K-ras G12V (GTP)): Rmax = 85.3 ± 0.1

CC(=O)Nc1ccc(-c2csc(NC(=O)c3sc(C)nc3C)n2)cc1 [Compound 4663]
IC50 (K-ras G12V; [3]): 32 µM | IC50 (K-ras G12V; [4]): 32 µM | IC50 (K-ras G12D; [1]): 15 µM | IC50 (K-ras G12D; [2]): > 25 µM | IC50 (K-Ras wild-type; Table 1, G-LISA, 293H transfected, read-out: IC50 (μM) Wild-type): 7 µM | IC50 (K-Ras wild-type; Table 5, IC50, 293H transfected, read-out: G-LISA (wild type)): 7 µM | SPR Assay G12V (GTP) Kd (K-ras G12V (GTP)): No binding/fit

Cc1nc(C)c(C(=O)Nc2nc(-c3cc4c5c(c3)CCN5C(=O)CC4)cs2)s1 [Compound 4749]
IC50 (K-ras G12D; [1]): > 25 µM | IC50 (K-ras G12D; [2]): 36 µM | Kd (K-ras G12V (GTP)): 6.08 µM | SPR Assay G12V (GTP) Rmax (K-ras G12V (GTP)): Rmax = 75.9 ± 0.1

Cc1nc(C)c(C(=O)Nc2nc(-c3ccc(NC(=O)c4ccccc4)cc3)cs2)s1 [Compound 4665]
IC50 (K-ras G12D; [1]): > 25 µM | IC50 (K-ras G12D; [2]): > 25 µM

Cc1nc(C)c(C(=O)Nc2nc(-c3ccc4c(c3)CCC(=O)N4)c(C)s2)s1 [Compound 4802]
IC50 (K-ras G12V; [3]): 17 µM | IC50 (K-ras G12V; [4]): 17 µM | IC50 (K-ras G12D; [1]): > 25 µM | IC50 (K-ras G12D; [2]): 27 µM

O=C1CCc2cc(-c3csc(NC(=O)c4cnc(C5CC5)s4)n3)ccc2N1 [Compound 4683]
IC50 (K-ras G12D; [1]): 12 µM | IC50 (K-ras G12D; [2]): 11.9 µM

O=C1CCc2cc(-c3csc(NC(=O)c4ncccn4)n3)ccc2N1 [Compound 4826]
IC50 (K-ras G12D; [1]): > 25 µM | IC50 (K-ras G12D; [2]): > 25 µM

Cc1nc(C)c(C(=O)Nc2nc(-c3ccc4c(c3)CCC(=O)N4)cs2)s1 [Compound 4662]
IC50 (K-ras G12D; [1]): > 25 µM | IC50 (K-ras G12D; [2]): > 25 µM

N#Cc1ncc(C(=O)Nc2nc(-c3ccc4c(c3)CCC(=O)N4)cs2)s1 [Compound 4685]
IC50 (K-ras G12D; [1]): > 25 µM | IC50 (K-ras G12D; [2]): > 25 µM

CC(=O)N1CCCc2cc(-c3csc(NC(=O)c4sc(C)nc4C)n3)ccc21 [Compound 4686]
IC50 (K-ras G12D; [1]): 11 µM | IC50 (K-ras G12D; [2]): 11 µM | Kd (K-ras G12V (GTP)): 11.4 µM | SPR Assay G12V (GTP) Rmax (K-ras G12V (GTP)): Rmax = 94.2 ± 0.2

O=C1CCc2cc(-c3csc(Nc4ncccn4)n3)ccc2N1 [Compound 4829]
IC50 (K-ras G12D; [1]): > 25 µM | IC50 (K-ras G12D; [2]): > 25 µM
